These results are taken from patent US7919498B2, “Substituted pyrazolo[3,4-d]pyrimidines as PI3K inhibitors” (Amgen Inc., priority 2007, dated 2011).

Test [1] has as its system mouse model of rheumatoid arthritis. The conditions noted are these: in vivo; cited from earlier work.
Test [2] deals with model of systemic lupus erythematosis. The conditions noted are these: in vivo; cited from earlier work.
In another test the test system is human B cells. Put plainly: Human B cells proliferation stimulated by anti-IgM. The format is cell-based. The conditions noted are these: B-cell; anti-Human IgM + CD40L-LZ, 72 h, 3H thymidine. The protocol: Human B Cells Proliferation Stimulate by Anti-IgM
Isolate PBMCs from Leukopac or from human fresh blood. Isolate human B cells by using Miltenyi protocol and B cell isolation kit II.—human B cells were Purified by using AutoMacs.column.
Activation of Human B Cells
Use 96 well Flat bottom plate, plate 50000/well purified B cells in B cell proliferation medium (DMEM+5% FCS, 10 mM Hepes, 50 μM 2-mercaptoethanol); 150 μL medium contain 250 ng/mL CD40L-LZ recombinant protein (Amgen) and 2 μg/mL anti-Human IgM antibody (Jackson ImmunoReseach Lab.# 109-006-129), mixed with 50 μL B cell medium containing PI3K inhibitors and incubate 72 h at 37° C. incubator. After 72 h, pulse labeling B cells with 0.5-1 uCi/well ^3H thymidine for overnight ˜18 h, and harvest cell using TOM harvester.

The next test concerns the target T1, p110δ (Homo sapiens, UniProt O00329).
T1 sequence (O00329 1-1044): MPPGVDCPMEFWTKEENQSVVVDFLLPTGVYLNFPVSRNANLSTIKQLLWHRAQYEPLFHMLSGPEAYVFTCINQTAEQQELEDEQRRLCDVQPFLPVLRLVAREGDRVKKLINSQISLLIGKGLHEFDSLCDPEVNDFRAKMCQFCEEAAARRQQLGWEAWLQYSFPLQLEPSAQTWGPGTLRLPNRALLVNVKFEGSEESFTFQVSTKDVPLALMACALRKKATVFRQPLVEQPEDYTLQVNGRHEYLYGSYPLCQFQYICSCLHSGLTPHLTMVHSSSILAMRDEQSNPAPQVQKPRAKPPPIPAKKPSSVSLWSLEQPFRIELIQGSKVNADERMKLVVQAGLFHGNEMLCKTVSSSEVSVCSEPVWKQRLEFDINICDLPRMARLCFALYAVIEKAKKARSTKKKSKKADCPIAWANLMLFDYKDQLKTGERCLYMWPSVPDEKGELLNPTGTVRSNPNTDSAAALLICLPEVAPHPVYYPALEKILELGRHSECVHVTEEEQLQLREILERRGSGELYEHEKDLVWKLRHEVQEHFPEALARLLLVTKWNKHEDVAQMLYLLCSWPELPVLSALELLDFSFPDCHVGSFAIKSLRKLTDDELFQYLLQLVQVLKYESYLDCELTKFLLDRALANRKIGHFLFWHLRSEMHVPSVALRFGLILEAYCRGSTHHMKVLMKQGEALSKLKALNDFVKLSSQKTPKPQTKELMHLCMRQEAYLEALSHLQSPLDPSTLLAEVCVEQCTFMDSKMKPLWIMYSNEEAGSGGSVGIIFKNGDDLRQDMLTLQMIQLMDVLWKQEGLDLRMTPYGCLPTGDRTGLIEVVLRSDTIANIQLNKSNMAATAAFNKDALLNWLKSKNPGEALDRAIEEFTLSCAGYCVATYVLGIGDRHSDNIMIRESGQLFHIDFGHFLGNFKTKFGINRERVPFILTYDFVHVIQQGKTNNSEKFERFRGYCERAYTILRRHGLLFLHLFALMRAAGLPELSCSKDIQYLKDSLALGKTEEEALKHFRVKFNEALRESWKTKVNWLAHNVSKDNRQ
The conditions noted are these: cited from earlier work.

The test system of the next test is protein kinases. The note with it: cited from earlier work.
In a further test the test system is murine model of asthma. The note with it: ovalbumin-induced airway inflammation; cited from earlier work.

The structures appear in SMILES notation.

For the compound `O=C1NC(=O)/C(=C\c2ccc3nccnc3c2)S1` [AS 605240], the “efficacy in mouse model of rheumatoid arthritis” value in test [1] was “efficacious”. Also, the “onset of disease in model of systemic lupus erythematosis” value in test [2] is “delay onset of disease”.
`Cc1nn([C@@H](C)c2cc3cccc(Cl)c3nc2-c2cccc(F)c2)c2ncnc(N)c12` [Example 23, 1-((S)-1-(8-chloro-2-(3-fluorophenyl)quinolin-3-yl)ethyl)-3-methyl-1H-pyrazolo[3,4-d]pyrimidin-4-amine]: the IC50 (commonly the concentration needed to halve the response being measured) in the test with human B cells came to 1.57 nM.
As to `Nc1ncnc2c1c(I)nn2Cc1cc2c(Cl)cccc2nc1-c1ccccc1Cl` [Example 25, 1-((5-Chloro-2-(2-chlorophenyl)quinolin-3-yl)methyl)-3-iodo-1H-pyrazolo-[3,4-d]pyrimidin-4-amine], the half-inhibitory concentration (IC50) in the test on human B cells came to 93.4 nM.
Take `Cn1cc(-c2nn(Cc3cc4c(Cl)cccc4nc3-c3ccccc3Cl)c3ncnc(N)c23)cn1` [Example 26, 1-((5-chloro-2-(2-chlorophenyl)quinolin-3-yl)methyl)-3-(1-methyl-1H-pyrazol-4-yl)-1H-pyrazolo[3,4-d]pyrimidin-4-amine]: the IC50 in the test on human B cells was found to be 46.7 nM.
Same read-out and setting: the value for `Cc1nn(Cc2cc3cccc(Cl)c3nc2-c2ccccc2C(F)(F)F)c2ncnc(N)c12` [Example 30, 1-((8-chloro-2-(2-(trifluoromethyl)phenyl)quinolin-3-yl)methyl)-3-methyl-1H-pyrazolo[3,4-d]pyrimidin-4-amine] was 44.8 nM.
Same read-out and setting: in the case of `Cc1nn(Cc2cc3c(Cl)cccc3nc2-c2ccccc2C(F)(F)F)c2ncnc(N)c12` [Example 31, 1-((5-Chloro-2-(2-(trifluoromethyl)phenyl)quinolin-3-yl)methyl)-3-methyl-1H-pyrazolo[3,4-d]pyrimidin-4-amine] it was 136 nM.
Consider `Cc1ccccc1-n1c(Cn2cnc3c(N)ncnc32)nc2cccc(C)c2c1=O` [IC87114], for which the “inhibition of p110δ” value on p110δ is listed as “high nanomolar range (triple digit)”. Further, in the test on protein kinases, the “activity against any protein kinases tested” value is reported as “no activity”. Also, in the test on murine model of asthma, the “inflammation and disease in murine model of asthma” value was “significantly ameliorate inflammation and disease”.
